Test results from patent publication US20230407243A1, “GENETIC PLATFORM TO INVESTIGATE THE FUNCTIONS OF BACTERIAL DRUG EFFLUX PUMPS” (priority 2022, published 2023).

Key:
Type in all cases: cell-based, Escherichia coli
[1] = tested on: E. coli EKO-35; assay: microbe, parasite or virus in culture; conditions: for Fold change of MICs: EKO-35 compared to EKO-35 (reference); for Minimum inhibitory concentration (MIC), EKO-35: Table 10, without pore; for Minimum inhibitory concentration (MIC), EKO-35 / Minimum Inhibitory Concentration, EKO-35: technical duplicate; for Minimum Inhibitory Concentration, EKO-35: Table 13A, non-porinated
Summary of the method: (§1)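 Broth MIC in cation-adjusted Mueller-Hinton (MHB II) following twofold compound titration in duplicate. Bacteria were prepared at OD600 ~1.0 in PBS and diluted 1/2000. Endpoint OD600 after 18 h at 37 °C was corrected using the pre-incubation reading.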

[2] = tested on: E. coli ΔtolC; assay: microbe, parasite or virus in culture; conditions: technical duplicate; for Minimum inhibitory concentration (MIC), ΔtolC: Table 10, without pore; for Minimum Inhibitory Concentration, ΔtolC: Table 13A, non-porinated
Summary of the method: as §1

[3] = tested on: wild-type E. coli K-12 str. BW25113; assay: microbe, parasite or virus in culture; conditions: technical duplicate; for Minimum inhibitory concentration (MIC), K-12: Table 10, without pore; for Minimum Inhibitory Concentration, K-12: Table 13A, non-porinated
Summary of the method: as §1

[4] = tested on: EKO-35 araC::acrEF; assay: MIC susceptibility profiling, efflux platform; conditions: for Fold change of MICs: EKO-35 araC::acrEF compared to EKO-35; for Minimum Inhibitory Concentration, EKO-35 araC::acrEF: Table 13A, non-porinated, technical duplicate
Summary of the method: as §1

[5] = tested on: EKO-35 araC::emrAB; assay: MIC susceptibility profiling, efflux platform; conditions: for Fold change of MICs: EKO-35 araC::emrAB compared to EKO-35; for Minimum Inhibitory Concentration, EKO-35 araC::emrAB: Table 13B, non-porinated, technical duplicate
Summary of the method: as §1

[6] = tested on: EKO-35 araC::macAB; assay: MIC susceptibility profiling, efflux platform; conditions: for Fold change of MICs: EKO-35 araC::macAB compared to EKO-35; for Minimum Inhibitory Concentration, EKO-35 araC::macAB: Table 13B, non-porinated, technical duplicate
Summary of the method: as §1

[7] = tested on: wild-type (WT) K-12-Pore; assay: microbe, parasite or virus in culture; conditions: technical duplicate; for Minimum inhibitory concentration (MIC), Pore K-12: Table 10, with pore; for Minimum inhibitory concentration, K-12 (WT)-Pore: Table 14A, porinated
Summary of the method: (§2)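 MIC values come from background-corrected OD600 readings (pre-incubation OD subtracted) after 18 h at 37 °C and 900 rpm in MHB II. Compounds were tested in duplicate as 2-fold dilutions. The inoculum came from 18 h LB cultures adjusted to OD600 ~1.0 and diluted 1/2000, and the pore-bearing strains were vancomycin-checked beforehand.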

[8] = tested on: ΔtolC-Pore; assay: microbe, parasite or virus in culture; conditions: technical duplicate; for Minimum inhibitory concentration (MIC), Pore ΔtolC: Table 10, with pore; for Minimum inhibitory concentration, ΔtolC-Pore: Table 14A, porinated
Summary of the method: as §2

[9] = tested on: EKO-35-Pore; assay: MIC susceptibility profiling, porinated strain; conditions: for Fold changes of MICs: EKO-35-Pore compared to EKO-35-Pore (reference); for Minimum inhibitory concentration (MIC), Pore EKO-35: Table 10, with pore; for Minimum inhibitory concentration (MIC), Pore EKO-35 / Minimum inhibitory concentration, EKO-35-Pore: technical duplicate; for Minimum inhibitory concentration, EKO-35-Pore: Table 14A, porinated
Summary of the method: as §2

[10] = tested on: EKO-35 araC::acrB Pore; assay: MIC susceptibility profiling, porinated efflux platform; conditions: for Fold changes of MICs: EKO-35 araC::acr-B Pore compared to EKO-35-Pore; for Minimum inhibitory concentration, EKO-35 araC::acrB Pore: Table 14A, porinated, technical duplicate
Summary of the method: as §2

[11] = tested on: EKO-35 araC::acrBD408A Pore; assay: as above; conditions: for Fold changes of MICs: EKO-35 araC::acrBD408A Pore compared to EKO-35-Pore; for Minimum inhibitory concentration: EKO-35 araC::acrBD408A Pore, technical duplicate
Summary of the method: as §2

[12] = tested on: EKO-35 araC::acrD Pore; assay: as above; conditions: for Fold changes of MICs: EKO-35 araC::acrD Pore compared to EKO-35-Pore; for Minimum inhibitory concentration, EKO-35 araC::acrD Pore: Table 14A, porinated, technical duplicate
Summary of the method: as §2

[13] = tested on: EKO-35 araC::acrEF Pore; assay: as above; conditions: for Fold changes of MICs: EKO-35 araC::acrEF Pore compared to EKO-35-Pore; for Minimum inhibitory concentration, EKO-35 araC::acrEF Pore: Table 14A, porinated, technical duplicate
Summary of the method: as §2

[14] = tested on: EKO-35 araC::emrAB Pore; assay: as above; conditions: for Fold changes of MICs: EKO-35 araC::emrAB Pore compared to EKO-35-Pore; for Minimum inhibitory concentration: EKO-35 araC::emrAB Pore, technical duplicate
Summary of the method: as §2

[15] = tested on: EKO-35 araC::emrKY Pore; assay: as above; conditions: for Fold changes of MICs: EKO-35 araC::emrKY Pore compared to EKO-35-Pore; for Minimum inhibitory concentration: EKO-35 araC::emrKY Pore, technical duplicate
Summary of the method: as §2

[16] = tested on: EKO-35 araC::macAB Pore; assay: as above; conditions: for Fold changes of MICs: EKO-35 araC::macAB Pore compared to EKO-35-Pore; for Minimum inhibitory concentration: EKO-35 araC::macAB Pore, technical duplicate
Summary of the method: as §2

[17] = tested on: EKO-35 araC::mdtBC Pore; assay: as above; conditions: for Fold changes of MICs: EKO-35 araC::mdtBC Pore compared to EKO-35-Pore; for Minimum inhibitory concentration: EKO-35 araC::mdtBC Pore, technical duplicate
Summary of the method: as §2

[18] = tested on: EKO-35 araC::mdtEF Pore; assay: as above; conditions: for Fold changes of MICs: EKO-35 araC::mdtEF Pore compared to EKO-35-Pore; for Minimum inhibitory concentration, EKO-35 araC::mdtEF Pore: Table 14A, porinated, technical duplicate
Summary of the method: as §2

[19] = tested on: EKO-35 araC::mexCD Pore; assay: as above; conditions: for Fold changes of MICs: EKO-35 araC::mexCD Pore compared to EKO-35-Pore; for Minimum inhibitory concentration: EKO-35 araC::mexCD Pore, technical duplicate
Summary of the method: as §2

Structure (SMILES) | Fold change of MICs [1] [fold] | Minimum inhibitory concentration (MIC), EKO-35 [1] [µg/mL] | Minimum Inhibitory Concentration, EKO-35 [1] [µg/mL] | Minimum inhibitory concentration (MIC), ΔtolC [2] [µg/mL] | Minimum Inhibitory Concentration, ΔtolC [2] [µg/mL] | Minimum inhibitory concentration (MIC), K-12 [3] [µg/mL] | Minimum Inhibitory Concentration, K-12 [3] [µg/mL] | Fold change of MICs [4] [fold] | Minimum Inhibitory Concentration, EKO-35 araC::acrEF [4] [µg/mL] | Fold change of MICs [5] [fold] | Minimum Inhibitory Concentration, EKO-35 araC::emrAB [5] [µg/mL] | Fold change of MICs [6] [fold] | Minimum Inhibitory Concentration, EKO-35 araC::macAB [6] [µg/mL] | Minimum inhibitory concentration (MIC), Pore K-12 [7] [µg/mL] | Minimum inhibitory concentration, K-12 (WT)-Pore [7] [µg/mL] | Minimum inhibitory concentration (MIC), Pore ΔtolC [8] [µg/mL] | Minimum inhibitory concentration, ΔtolC-Pore [8] [µg/mL] | Fold changes of MICs [9] [fold] | Minimum inhibitory concentration (MIC), Pore EKO-35 [9] [µg/mL] | Minimum inhibitory concentration, EKO-35-Pore [9] [µg/mL] | also measured
O=C(Nc1cccc(Oc2c(F)c(F)c(F)c(F)c2F)c1)c1ccccc1 [compound 1] | 1 | 320 | 320 | 5 | 5 | 320 | 320 | 1 | 320 | 1 | 320 | 1 | 320 | 320 | 320 | 10 | 10 | 1 | 320 | 320 | Fold changes of MICs [10]: 1 fold; Minimum inhibitory concentration, EKO-35 araC::acrB Pore [10]: 320 µg/mL; Fold changes of MICs [11]: 1 fold; Minimum inhibitory concentration [11]: 320 µg/mL; Fold changes of MICs [12]: 1 fold; Minimum inhibitory concentration, EKO-35 araC::acrD Pore [12]: 320 µg/mL; Fold changes of MICs [13]: 1 fold; Minimum inhibitory concentration, EKO-35 araC::acrEF Pore [13]: 320 µg/mL; Fold changes of MICs [14]: 1 fold; Minimum inhibitory concentration [14]: 320 µg/mL; Fold changes of MICs [15]: 1 fold; Minimum inhibitory concentration [15]: 320 µg/mL; Fold changes of MICs [16]: 1 fold; Minimum inhibitory concentration [16]: 320 µg/mL; Fold changes of MICs [17]: 1 fold; Minimum inhibitory concentration [17]: 320 µg/mL; Fold changes of MICs [18]: 1 fold; Minimum inhibitory concentration, EKO-35 araC::mdtEF Pore [18]: 320 µg/mL; Fold changes of MICs [19]: 1 fold; Minimum inhibitory concentration [19]: 320 µg/mL
N#Cc1ccc(-c2c(NC(=O)C(Cl)Cl)oc(-c3cccs3)c2C#N)cc1 [compound 2] | 1 | 320 | 320 | 1.25 | 1.25 | 320 | 320 | 1 | 320 | 1 | 320 | 1 | 320 | 320 | 320 | 1.25 | 1.25 | 1 | 320 | 320 | Fold changes of MICs [10]: 1 fold; Minimum inhibitory concentration, EKO-35 araC::acrB Pore [10]: 320 µg/mL; Fold changes of MICs [11]: 1 fold; Minimum inhibitory concentration [11]: 320 µg/mL; Fold changes of MICs [12]: 1 fold; Minimum inhibitory concentration, EKO-35 araC::acrD Pore [12]: 320 µg/mL; Fold changes of MICs [13]: 1 fold; Minimum inhibitory concentration, EKO-35 araC::acrEF Pore [13]: 320 µg/mL; Fold changes of MICs [14]: 1 fold; Minimum inhibitory concentration [14]: 320 µg/mL; Fold changes of MICs [15]: 1 fold; Minimum inhibitory concentration [15]: 320 µg/mL; Fold changes of MICs [16]: 1 fold; Minimum inhibitory concentration [16]: 320 µg/mL; Fold changes of MICs [17]: 1 fold; Minimum inhibitory concentration [17]: 320 µg/mL; Fold changes of MICs [18]: 1 fold; Minimum inhibitory concentration, EKO-35 araC::mdtEF Pore [18]: 320 µg/mL; Fold changes of MICs [19]: 1 fold; Minimum inhibitory concentration [19]: 320 µg/mL
